This is an account of results in US20260102359A1, “COMBINATION TREATMENT OF DERMAL AND TRANSDERMAL FIBROTIC DISEASES, DISORDERS AND ASSOCIATED PAIN AND INFLAMMATION” (ERESINA, LLC, priority 2022, published 2026).

Where a name gives a salt, the structure may show the parent alone.

The subject of this series is hDMFa myofibroblast cells.

In the case of `Cc1cc(-c2ccc(/N=N/c3ccc4c(S(=O)(=O)[O-])cc(S(=O)(=O)[O-])c(N)c4c3O)c(C)c2)ccc1/N=N/c1ccc2c(S(=O)(=O)[O-])cc(S(=O)(=O)[O-])c(N)c2c1O.[Na+].[Na+].[Na+].[Na+]` [Cmpd 445, Evans Blue tetrasodium salt], the “Compound Myofibroblast Cytotoxicity Activity” value is listed as “++”.

Consider `Fc1ccc([C@@H]2CCNC[C@H]2COc2ccc3c(c2)OCO3)cc1` [Cmpd 758, Paroxetine HCl], for which the “Compound Myofibroblast Cytotoxicity Activity” value was “+++”.

Turning to `Br.NCCc1cc(O)c(O)cc1O` [Cmpd 72], the “Compound Myofibroblast Cytotoxicity Activity” value is listed as “++++”.

`N#C[C@@H]1C[C@@H]2C[C@@H]2N1C(=O)[C@@H](N)C12CC3CC(CC(O)(C3)C1)C2` [Cmpd 854, Saxagliptin hydrate]: the “Compound Myofibroblast Cytotoxicity Activity” value is on record as “++”.

As for `Cn1cc(C2=C(c3cn(C4CCN(Cc5ccccn5)CC4)c4ccccc34)C(=O)NC2=O)c2ccccc21` [Cmpd 420, Enzastaurin (LY317615)], the “Compound Myofibroblast Cytotoxicity Activity” value is listed as “++++”.

On to `Cl.NCc1ccc(S(N)(=O)=O)cc1` [Cmpd 627, Mafenide hydrochloride], for which the “Compound Myofibroblast Cytotoxicity Activity” value is given as “++”.

As for `O=C(O)c1cn(C2CC2)c2cc(N3CCNCC3)c(F)cc2c1=O` [Cmpd 268, Ciprofloxacin (hydrochloride)], the “Compound Myofibroblast Cytotoxicity Activity” value is given as “++”.

Regarding `COc1cc(Nc2ncc3c(n2)-c2ccc(Cl)cc2C(c2c(F)cccc2OC)=NC3)ccc1C(=O)O` [Cmpd 685, MLN8237 (Alisertib)], the “Compound Myofibroblast Cytotoxicity Activity” value is given as “++++”.

As for `Cc1cc(C2CCCCC2)n(O)c(=O)c1` [Cmpd 258, Ciclopirox], the “Compound Myofibroblast Cytotoxicity Activity” value was “++++”.

Turning to `Nc1cccc2c1CN(C1CCC(=O)NC1=O)C2=O` (centres unmarked) [Cmpd 578, Lenalidomide (CC-5013)], the “Compound Myofibroblast Cytotoxicity Activity” value is recorded as “++”.

In the case of `COC(=O)c1ccc(O)cc1` [Cmpd 664, Methylparaben], the “Compound Myofibroblast Cytotoxicity Activity” value is recorded as “++”.

For the molecule `Clc1ccc(COC(Cn2ccnc2)c2ccc(Cl)cc2Cl)c(Cl)c1` (centres unmarked) [Cmpd 672, Miconazole Nitrate], the “Compound Myofibroblast Cytotoxicity Activity” value is “+++”.

For `CC(CCc1ccccc1)NCC(O)c1ccc(O)c(C(N)=O)c1` (centres unmarked) [Cmpd 553, Labetalol HCl], the “Compound Myofibroblast Cytotoxicity Activity” value is on record as “++”.

Regarding `COc1ccccc1OCCNCC(O)COc1cccc2[nH]c3ccccc3c12` (centres unmarked) [Cmpd 221, Carvedilol], the “Compound Myofibroblast Cytotoxicity Activity” value is “+++”.

On to `CCC1(C)CC(=O)NC1=O` (centres unmarked) [Cmpd 436, Ethosuximide], for which the “Compound Myofibroblast Cytotoxicity Activity” value is recorded as “++”.

With `CCN(C(=O)c1c(O)c2c(Cl)cccc2n(C)c1=O)c1ccccc1` [Cmpd 559, Laquinimod (ABR-215062)], the “Compound Myofibroblast Cytotoxicity Activity” value is on record as “++++”.

With `COc1cc2nc(N3CCN(C(=O)C4COc5ccccc5O4)CC3)nc(N)c2cc1OC` (centres unmarked) [Cmpd 384, Doxazosin Mesylate], the “Compound Myofibroblast Cytotoxicity Activity” value is “+++”.

With `O=c1[nH]c(=O)n([C@H]2C[C@H](O)[C@@H](CO)O2)cc1F` [Cmpd 459, Floxuridine], the “Compound Myofibroblast Cytotoxicity Activity” value is on record as “+++”.

Turning to `Oc1ccc(O)cc1` [Cmpd 509, Hydroquinone], the “Compound Myofibroblast Cytotoxicity Activity” value is “++”.

In the case of `CC(=O)Nc1ccccc1` [Cmpd 79, Acetanilide], the “Compound Myofibroblast Cytotoxicity Activity” value is on record as “++++”.

`CCOC(=O)C1=C(COCCN)NC(C)=C(C(=O)OC)C1c1ccccc1Cl` (centres unmarked) [Cmpd 110, Amlodipine]: the “Compound Myofibroblast Cytotoxicity Activity” value is “+++”.

Regarding `O=C(O)c1cc(O)cc(O)c1` [Cmpd 50, 3-5-Dihydroxybenzoic Acid], the “Compound Myofibroblast Cytotoxicity Activity” value is listed as “++”.

As for `COC(=O)c1ccccc1O` [Cmpd 659, Methyl salicylate], the “Compound Myofibroblast Cytotoxicity Activity” value is recorded as “++”.

For the molecule `CO[C@@H]1[C@H](N(C)C(=O)c2ccccc2)C[C@H]2O[C@]1(C)n1c3ccccc3c3c4c(c5c6ccccc6n2c5c31)C(=O)NC4` [Cmpd 674, Midostaurin (PKC412)], the “Compound Myofibroblast Cytotoxicity Activity” value is on record as “++”.

As to `NCCC(O)(P(=O)([O-])O)P(=O)([O-])O.[Na+].[Na+]` [Cmpd 756, Pamidronate Disodium], the “Compound Myofibroblast Cytotoxicity Activity” value was “+++”.

Regarding `C[C@H](CCC(=O)O)[C@H]1CC[C@H]2[C@@H]3CC[C@@H]4C[C@H](O)CC[C@]4(C)[C@H]3C[C@H](O)[C@]12C` [Cmpd 339, Deoxycholic acid sodium salt], the “Compound Myofibroblast Cytotoxicity Activity” value was “+++++”.

In the case of `CNC(=O)c1c(C)oc2cc(Oc3ncnc4cc(OC)c(OC)cc34)ccc12` [Cmpd 472, Fruquintinib(HMPL-013)], the “Compound Myofibroblast Cytotoxicity Activity” value was “++++”.

As for `COc1cc(C(=O)NCc2ccc(OCCN(C)C)cc2)cc(OC)c1OC.Cl` [Cmpd 974, Trimethobenzamide hydrochloride], the “Compound Myofibroblast Cytotoxicity Activity” value is listed as “++”.

Turning to `OCc1cc([C@@H](O)CNCCCCCCOCCOCc2c(Cl)cccc2Cl)ccc1O` [Cmpd 1001, Vilanterol trifenatate], the “Compound Myofibroblast Cytotoxicity Activity” value is recorded as “+++”.

With `Oc1ccc(C=Cc2cc(O)cc(O)c2)cc1` [Cmpd 829, Resveratrol], the “Compound Myofibroblast Cytotoxicity Activity” value is “++”.

As to `CS(=O)(=O)O.C[C@H]1COc2c(C3(N)CC3)c(F)cc3c(=O)c(C(=O)O)cn1c23` [Cmpd 760, Pazufloxacin mesylate], the “Compound Myofibroblast Cytotoxicity Activity” value was “+++”.

As to `Nc1nc(=O)c2c([nH]1)NCC(CNc1ccc(C(=O)N[C@@H](CCC(=O)[O-])C(=O)[O-])cc1)N2C=O.[Ca+2]` (some centres unmarked) [Cmpd 468, Folinic Acid (calcium salt)], the “Compound Myofibroblast Cytotoxicity Activity” value was “+++”.

Regarding `C=C1[C@H](CO)[C@@H](O)C[C@@H]1n1cnc2c(=O)[nH]c(N)nc21` [Cmpd 418, Entecavir Hydrate], the “Compound Myofibroblast Cytotoxicity Activity” value is on record as “+++”.

As for `O=C(O)C=Cc1ccccc1` [Cmpd 266, Cinnamic acid], the “Compound Myofibroblast Cytotoxicity Activity” value is on record as “++”.

Take `COc1ccc([C@@H]2CC(=O)c3c(O)cc(O[C@@H]4O[C@H](CO)[C@@H](O)[C@H](O)[C@H]4O[C@@H]4O[C@@H](C)[C@H](O)[C@@H](O)[C@H]4O)cc3O2)cc1O` [Cmpd 702, Neohesperidin]: the “Compound Myofibroblast Cytotoxicity Activity” value is “++”.

In the case of `CCOC(=O)/C=C(C)/C=C/C=C(C)/C=C/c1c(C)cc(OC)c(C)c1C` [Cmpd 442, Etretinate], the “Compound Myofibroblast Cytotoxicity Activity” value is on record as “+++”.

On to `O=C(O)c1ccc(O)c(O)c1` [Cmpd 804, Protocatechuic acid], for which the “Compound Myofibroblast Cytotoxicity Activity” value is on record as “++”.

Take `CCCCc1oc2ccccc2c1C(=O)c1cc(I)c(OCCN(CC)CC)c(I)c1` [Cmpd 107, Amiodarone HCl]: the “Compound Myofibroblast Cytotoxicity Activity” value is reported as “+++”.

As to `C[n+]1cc2c3c(ccc2c2ccc4cc5c(cc4c21)OCO5)OCO3` [Cmpd 850, Sanguinarine], the “Compound Myofibroblast Cytotoxicity Activity” value is “+++++”.

Consider `O=C(O)Cc1ccccc1Nc1c(Cl)cccc1Cl` [Cmpd 355, Diclofenac], for which the “Compound Myofibroblast Cytotoxicity Activity” value is “++”.

`CCN(CC)CCOc1ccc(C(=C(Cl)c2ccccc2)c2ccccc2)cc1` [Cmpd 284, Clomiphene citrate]: the “Compound Myofibroblast Cytotoxicity Activity” value was “+++”.

Take `CO/N=C(\C(=O)N[C@@H]1C(=O)N2C(C(=O)[O-])=C(CSC(=O)c3ccco3)CS[C@H]12)c1csc(N)n1.[Na+]` [Cmpd 237, Ceftiofur sodium]: the “Compound Myofibroblast Cytotoxicity Activity” value is reported as “++”.

With `COc1ccc2cc3[n+](cc2c1OC)CCc1cc2c(cc1-3)OCO2.[Cl-]` [Cmpd 172, Berberine hydrochloride], the “Compound Myofibroblast Cytotoxicity Activity” value is “++”.

With `CC(=O)CCCCn1c(=O)c2c(ncn2C)n(C)c1=O` [Cmpd 769, Pentoxifylline], the “Compound Myofibroblast Cytotoxicity Activity” value is given as “++++”.

Regarding `CCCN(CCC)C(=O)C1=Cc2ccc(-c3ccc(C(=O)N4CCCC4)cc3)cc2N=C(N)C1` [Cmpd 690, Motolimod (VTX-2337)], the “Compound Myofibroblast Cytotoxicity Activity” value is recorded as “++”.

For the molecule `N[C@@H](Cc1cc(I)c(Oc2ccc(O)c(I)c2)c(I)c1)C(=O)O` [Cmpd 972, Triiodothyronine], the “Compound Myofibroblast Cytotoxicity Activity” value is on record as “++”.

Consider `OC[C@@H](O)[C@@H](O)[C@H](O)[C@@H](O)CO` [Cmpd 882, Sorbitol], for which the “Compound Myofibroblast Cytotoxicity Activity” value is “++++”.

As to `CC(C)OC(=O)C(C(=O)OC(C)C)=C1SC=CS1` [Cmpd 632, Malotilate], the “Compound Myofibroblast Cytotoxicity Activity” value is “++”.

With `CC1=CC(=O)[C@H]2C[C@@H]1C2(C)C` [Cmpd 20, (1S)-(−)-Verbenone], the “Compound Myofibroblast Cytotoxicity Activity” value was “++”.

For `Nc1ncn([C@@H]2O[C@H](CO)[C@@H](O)[C@H]2O)c(=O)n1` [Cmpd 64, 5-Azacytidine], the “Compound Myofibroblast Cytotoxicity Activity” value was “+++”.

Take `C#CCN(C)Cc1ccccc1` [Cmpd 757, Pargyline (hydrochloride)]: the “Compound Myofibroblast Cytotoxicity Activity” value is recorded as “++”.

With `COc1ccc2[n-]c([S@@+]([O-])Cc3ncc(C)c(OC)c3C)nc2c1.COc1ccc2[n-]c([S@@+]([O-])Cc3ncc(C)c(OC)c3C)nc2c1.O.O.O.[Mg+2]` [Cmpd 428, Esomeprazole Magnesium trihydrate], the “Compound Myofibroblast Cytotoxicity Activity” value was “++”.

Turning to `CCN1CCN(c2cc(-c3ccc(F)cc3)c3c(n2)CCCCCC3)CC1` [Cmpd 187, Blonanserin], the “Compound Myofibroblast Cytotoxicity Activity” value is on record as “+++”.

With `Cc1cc(C(C#N)c2ccc(Cl)cc2)c(Cl)cc1NC(=O)c1cc(I)cc(I)c1[O-].[Na+]` (centres unmarked) [Cmpd 288, Closantel Sodium], the “Compound Myofibroblast Cytotoxicity Activity” value is on record as “+++”.

`CC(O)C(=O)O.CC(O)C(=O)O.CN1CCN(c2ccc3nc(-c4c(N)c5c(F)cccc5[nH]c4=O)[nH]c3c2)CC1` [Cmpd 383, Dovitinib Dilactic acid]: the “Compound Myofibroblast Cytotoxicity Activity” value is “+++”.

As for `COc1cc2ccc(=O)oc2cc1O` [Cmpd 857, Scopoletin], the “Compound Myofibroblast Cytotoxicity Activity” value is reported as “++”.

As to `CC(C)(S)[C@@H](N)C(=O)O` [Cmpd 766, Penicillamine], the “Compound Myofibroblast Cytotoxicity Activity” value is on record as “++”.

`CN(C)[C@@H](CCOc1cccc2ccccc12)c1ccccc1` [Cmpd 322, Dapoxetine HCl]: the “Compound Myofibroblast Cytotoxicity Activity” value was “++”.

Consider `Cc1ccc(NC(=O)c2ccc(CN3CC[C@H](N(C)C)C3)c(C(F)(F)F)c2)cc1Nc1nccc(-c2cncnc2)n1` [Cmpd 152, Bafetinib (INNO-406)], for which the “Compound Myofibroblast Cytotoxicity Activity” value is reported as “+++”.
